# Reference: patent publication US11147785B2, “Modified free amino acid formulation and uses” (priority 2020, dated 2021)
# Columns and labels:
# [1] = Topical application without propylene glycol; format: in vivo
# [2] = tested on: hepatic and intestinal glucuronidation; settings: concomitant administration; more in humans than rats; cited from earlier work
Structure (SMILES),Efficacy in topical applications [1],Increase of bioavailability (serum concentration and extent of intestinal absorption) [2]
"N[C@@H](CCC(=O)O)C(=O)[O-].O.[Na+] [MSGLM, Monosodium L-Glutamate Monohydrate]",ineffective,
O=C(/C=C/C=C/c1ccc2c(c1)OCO2)N1CCCCC1 [Piperine],,up to 20 fold
